Values of other authors in patent US20080145318A1, “ATOMOXETINE FORMULATIONS AND ASSOCIATED METHODS” (priority 2006, published 2008).

Experiments:
[1] = target: norepinephrine reuptake transporter (Homo sapiens, UniProt P23975); settings: relative to atomoxetine, in words
other receptor systems = settings: in words
serotonin reuptake = serotonin reuptake (Homo sapiens, UniProt P31645); settings: in words
serotonin reuptake, sequence (P31645 whole entry): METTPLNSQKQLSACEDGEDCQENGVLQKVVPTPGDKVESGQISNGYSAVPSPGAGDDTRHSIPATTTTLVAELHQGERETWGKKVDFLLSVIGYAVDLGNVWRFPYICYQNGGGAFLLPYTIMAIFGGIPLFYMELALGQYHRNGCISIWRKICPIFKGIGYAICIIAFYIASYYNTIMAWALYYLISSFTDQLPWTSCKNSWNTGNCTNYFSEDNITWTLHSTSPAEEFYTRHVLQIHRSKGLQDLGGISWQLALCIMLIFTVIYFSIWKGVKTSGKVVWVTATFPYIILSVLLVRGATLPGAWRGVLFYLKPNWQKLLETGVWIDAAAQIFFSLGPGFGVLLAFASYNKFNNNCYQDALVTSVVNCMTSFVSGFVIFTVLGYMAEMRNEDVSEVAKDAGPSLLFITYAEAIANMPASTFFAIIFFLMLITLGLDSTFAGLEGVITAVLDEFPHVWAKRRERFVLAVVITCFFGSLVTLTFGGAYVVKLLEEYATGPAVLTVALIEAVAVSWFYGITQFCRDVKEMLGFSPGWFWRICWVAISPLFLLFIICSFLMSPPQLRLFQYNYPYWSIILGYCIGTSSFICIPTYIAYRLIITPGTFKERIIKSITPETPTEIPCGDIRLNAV

norepinephrine reuptake transporter, sequence (P23975 whole entry): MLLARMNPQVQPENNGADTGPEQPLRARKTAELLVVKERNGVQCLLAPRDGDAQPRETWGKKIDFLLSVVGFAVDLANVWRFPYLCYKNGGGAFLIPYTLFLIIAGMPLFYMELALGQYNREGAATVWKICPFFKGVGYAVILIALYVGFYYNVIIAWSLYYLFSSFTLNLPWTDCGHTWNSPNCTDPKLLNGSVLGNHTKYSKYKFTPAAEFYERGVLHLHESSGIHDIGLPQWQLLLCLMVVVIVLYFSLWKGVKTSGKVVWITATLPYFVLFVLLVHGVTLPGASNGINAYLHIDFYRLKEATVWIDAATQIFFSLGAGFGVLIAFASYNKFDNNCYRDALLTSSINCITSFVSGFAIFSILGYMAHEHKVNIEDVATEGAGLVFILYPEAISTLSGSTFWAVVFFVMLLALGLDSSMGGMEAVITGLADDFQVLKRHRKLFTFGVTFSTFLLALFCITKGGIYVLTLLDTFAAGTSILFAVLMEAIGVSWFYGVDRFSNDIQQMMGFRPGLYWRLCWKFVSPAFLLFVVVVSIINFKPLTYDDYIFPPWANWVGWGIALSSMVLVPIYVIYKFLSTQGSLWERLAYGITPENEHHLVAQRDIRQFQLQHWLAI

Row | Compound | inhibitory activity to the norepinephrine reuptake transporter compared to atomoxetine [1] | affinity to other receptor systems (other receptor systems) | plasma half-life (individuals having normal activity in the CYP2D6 pathway) | half-life (individuals having reduced activity in the CYP2D6 pathway (poor metabolizers)) | serotonin reuptake inhibitor activity (serotonin reuptake)
1 | Cc1ccccc1OC(CCN)c1ccccc1 (centres unmarked) [NDA, N-desmethylatomoxetine] | less active | little affinity |  |  | 
2 | CNCCC(Oc1ccccc1C)c1ccccc1 (single isomer, unassigned; (-)) [atomoxetine, (−)-N-methyl-3-phenyl-3-(o-tolyloxy)-propylamine] |  |  | about 5 hours | about 24 hours | 
3 | CNCCC(Oc1ccc(O)cc1C)c1ccccc1 (centres unmarked) [4HA, 4-hydroxyatomoxetine] |  | little affinity |  |  | pharmacologically active
4 | Cc1cc(O)ccc1OC(CCN)c1ccccc1 (centres unmarked) [4H-NDA, N-desmethyl-4-hydroxyatomoxetine] | less active | little affinity |  |  | 
